How the values were obtained:
sciatic nerve = test: Viability of cryopreserved nerve grafts (Annexin-V staining, FACS); assay type: cell-based, rats; settings: 100 mmolar solution 1 hour, −30° C. 72 hours
Protocol: The sciatic nerve was prepared and sectured in anesthetized rats. The nerve pieces were freed from connective tissue and divided into 3 parts. Specimens were placed in culture DMEM medium containing low a concentration of glucose (1 g/L) with L-glutamine (PAA, Pasching Austria) for 24 hours. […] Nerve specimens from the same animals that received no pretreatment served as controls. After incubation, the specimens were cultured for 24 hours. In a further control group, specimens were cryopreserved without any pretreatment. The specimens were covered with a sterile gauze pad moistened with culture medium. Thereafter the temperature was gradually cooled to −30° C. After 72 hours, the nerve pieces were gradually rewarmed to 37° C. After this, renewed culturing was done for 48 hours. The nerve pieces were dissected enzymatically then (collagenase A and D, Roche, Mannheim, Germany) followed by a mechanical separation through multiple uptake and release in a glass pipette. The isolated cells were washed and marked with a living/death staining (Annexin-V-Fluos staining Kit, Roche Diagnostics, Mannheim, Germany) and quantified using FACS analysis. The number of living cells identified was set in relation to the total cells count.

ovarian tissue strips = test: Cryopreservation of ovarian tissue strips: intact follicles; settings: liquid nitrogen 14 days, cultured 14 days
Protocol: Ovar ectomy was performed in female sheep; resected tissues were cut into 60 ovarian tissue strips. The ovarian strips were either cultured directly (n=4) or prepared with a usual solution for vitrification (VS group; Vitrification Kit, Sage, USA) or incubated with nitrated PLs (NPL group). For this purpose, the tissue strips were bathed in an equibrilation solution (ART-8025-A) which consisted of MOPS-buffered amino acids and gentamicin sulfate (10 mg/l), and 7.5% (v/v) of each DMSO and ethylene glycol and 12 mg/ml human serum albumin for 30 minutes. Thereafter the strips of the VS group were placed in the vitrification solution (ART-8025-B), which is a MOPS-buffered solution containing amino acids and gentamicin sulfate, that contain 15% (v/v) each DMSO and ethylenglycol, 12 mg/ml human albumin and 0.6 M sucrose. The strips of the NPL group were placed in a solution containing 25% (v/v) nitrated PL SNOPC or PNLPC in a PBS-buffered 1% DMSO solution containing 5% human albumin for 60 minutes. The treated tissue strips were then immersed into liquid nitrogen and kept here for 14 days. Then removal and warming of the tissue pieces was performed in AIM-V medium (Gibco, Invitrogen) in a sterile culture dish, first up to 5° C. within 20 minutes, then heated further in a water bath up to 37° C., within the following 60 minutes. The culture medium was replaced and specimens cultured for 14 days. After this, the tissue pieces were fixed, embedded in paraffin and cut, followed by histological examination. […] The total number of intact follicles in the control group was taken as a reference to the number of follicles in the cryopreserved groups.
The culture medium has been exchanged by every 2nd day; samples for hormone analysis were taken and frozen at that time. Determination of 17 β-estradiol and progesterone were performed with a radio-immuno assay (diagnostic systems laboratories, USA).

[1] = Tissue response to coated silicone implants in vivo after bleomycin; set-up: species or system Wistar rats; settings: silicone cushions, subcutaneous, 7 to 90 days
Protocol: Induction of fibrotic tissue production by connective tissue activation as a consequence of implantation of foreign material was examined in an in-vivo animal model. As implant materials, sterile silicone cushions having a diameter of 1 cm were used.
In male Wistar rats (190-240 g) that were fed and housed under identical conditions for one week, general anaesthesia was performed by intramuscular injection of 0.008 mL/100 g ketamine and 0.004 mL/100 g xylocaln chloride 2%. Then the back of the animals was shaved, sterilized and infiltrated with xylocalne chloride. A paravertebral incision was made on both sides with a length of 1.5 cm followed by preparation of the subcutaneous tissue, so that on both sides approx. 2×2 cm cavities were preformed. Hemostasis was achieved by cauterization, if necessary. Then balls of cotton saturated with Bleomycin (cell-pharm GmbH, Hannover, Germany: 1% in 0.9% NaCl solution) were inserted into the cavities for 3 minutes and then removed. Without rinsing the cavities, the implants coated with a nitrated phospholipid were inserted into the cavity on the left side and the implants coated with natural phospholipid into the cavity on the right side. Thereafter, a layer by layer wound closure was performed and a sterile adhesive bandage was applied.
The animals were kept according to standard conditions for 7, 14, 30, 60 and 90 days. At any study time endpoint, two animals were euthanized. After death the well visible and palpable implants were removed using en-block resection technique. The resected specimens were fixed and embedded in paraffin. Then they were cut in half and the liquid silicone was removed. The specimens were embedded again and cut into thin slices which were stained with H & E and Sirius red, and evaluated by light microscopy. Evaluation was done according to the following criteria:
A1: none; A2: occasional monocytic cells or lymphocytes; A3: moderate numbers or groups of monocytic cells or lymphocytes; A4: dense infiltration of monocytes, eosinophils, or giant cells.
B1: none; B2: collagen-rich layer around the implant; B3: thick (>1 mm) and dense collagen-rich tissue formation around the implant.
In every 10th serial section 10 fields of view uniformly distributed over the circumference of the implant were evaluated and the herein predominant expression was assigned to an event table. In total, 200 fields of view were analyzed per implant

[2] = Abrasion stability and traction work load of coated balloon catheters; assay type: physicochemical
Protocol: Balloon catheters were coated by means of the Langmuir-Schaefer procedure where the balloon segment was aligned longitudinally and coaxial to the solution surface, dipping into the liquid for approx. 1 mm over the entire length. Then the catheter was slowly rotated around its axis 5 times. Phospholipids were dissolved at a concentration of 3 mmol in an ion-free aqueous solution at 50° C. The solution was cooled and given to the coating solution then. In case of incomplete dissolution of the phospholipids or if they separated when cooled, DMSO was added at a concentration of up to 20 vol.-%, preferably up to 10 vol.-%. After coating, the catheters were vacuum dried for 8 hours in order to remove residual solvent.
The tubing was filled with a 10% human albumin solution at a temperature of 35° C. The cable system, which had previously been brought through the tubing was connected to the catheter tip and tracked outside the tubing by reversing pulleys, which allowed exactly vertically traction of the cable that was connected to a motorized winch. The winch was mounted on a digital precision balance. The catheters mounted in this manner were pulled through the tubing system and the weight changes measured by the balance, which represented the traction work load achieved for the passage of the catheter, was recorded continuously. These readings were integrated over time. The resultant values allow estimation of the total shear force that occurred during the passage of the catheter through the tubing system.

cortical neurons = test: Hypoxia and reperfusion of cortical neurons (viability, LDH); settings: neurons and cardiac myocytes; 10 to 50 μmol/l
[3] = Transisomerization of unsaturated fatty acids in coatings on balloon catheters (FTIR); assay type: physicochemical; settings: for proportion of trans-fatty acids: after heat treatment (60° C., three hours)
Source text: The natural phospholipids POPC and SLPE, as well as the analogous nitrated phospholipids as shown in example C(PNOPC) and […]), as well as the phospholipids according to examples […], and S as a mono substance and as a combination of the native phospholipids and the corresponding nitro-carboxylic acid (s)-containing phospholipids mixed in a ratio of 1:1 were used for this investigation. Balloon catheters were coated by means of the Langmuir-Schaefer procedure where the balloon segment was aligned longitudinally and coaxial to the solution surface, dipping into the liquid for approx. 1 mm over the entire length. Then the catheter was slowly rotated around its axis 5 times. […] The solution was cooled and given to the coating solution then. In case of incomplete dissolution of the phospholipids or if they separated when cooled, DMSO was added at a concentration of up to 20 vol.-%, preferably up to 10 vol.-%. After coating, the catheters were vacuum dried for 8 hours in order to remove residual solvent. The abrasion or loss of coating layers was determined by weighing the catheter before and after coating as well as after the mechanical stability test in the tubing system as described above using a high precision balance. In order to examine the long-term stability of the coating, catheters coated with phospholipids were sealed with polyethylene glycol 1000 (Roth, Germany). For that purpose PEG 1000 was melted and mixed with a 10% ethanol solution at 50° C. A portion of the phospholipid-coated balloon catheter was coated by means of dip-coating in this PEG solution at 50° C., and dried thereafter for 8 hours. Stability of cis-conformity of unsaturated fatty acids of the phospholipids investigated was determined after heat treatment at 60° C. for three hours in a heating cabinet. After 24 hours and after 2 months the phospholipids coated on the balloon surface were detached and analyzed. Detachment was carried out in 50 ml of a chloroform:methanol mixture (3:1, v: v). A 10 μl aliquot was used for a FTIR spectroscopy. For this purpose the samples were dropped on a ZnSe ATR crystal and then the solvent was evaporated. Degree of transisomerization was determined using the integral of intensity of proton resonance in comparison to that measured from a cis configuration of the reference substances. Measurements were performed 24 hours after coating, heat treatment and after 2 months of storage at 25° C. under sterile room air conditions.

TRPV1, 2 and 4, TRPA1 = test: Inducible ion current of TRP receptors in Xenopus oocytes (voltage clamp); assay type: cell-based, rat; settings: 50 mmol/l, 10 and 60 minutes
Protocol: An established in-vitro model of Xenopus oocytes (Dascal N, 1987 The use of Xenopus oocytes. CRC critical reviews in biochemistry 22, 317-387) was used to study the influence of incubation with PL on ion channels regulated by membrane receptors. Defolliculized oocytes were transfected with cRNA (rat) of TRPV1, 2 and 4, as well as of TRPA1, stored in tissue culture plates and incubated in culture medium (ND 96) at 15° C. under constant motion in the incubator for 7 to 10 days.
Induced leakage currents through activation of the TRP receptors was determined by means of double electrode voltage-clamp technique (Ahern G P, Brooks I M, Miyares R L &Wang X B, 2005, Extracellular cations sensitize and gate capsaicin receptor TRPV1 modulating pain signalling. J Neurosci 25, 5109-5116). Ooocytes were probed with borosilicate glass capillaries (Clark) and connected to a feedback amplifier (Gene clamp Amplifier, Axon instruments). The membrane potential of oocytes was clamped to −60 or −90 mV. The presence of a directive […] current was compared to non-transfected controls. The investigations were performed in a miniature organ bath in calcium-free buffered (Hepes, pH 7.3) NaCl solution. The TRPV1 receptor excitation was initiated by rapidly changing of the bath solution against a capsaicin solution (10 μmol). Results of non-pretreated oocytes were used for normative comparison of subsequent measurements of incubatesd cells. Investigations with incubated cells were carried out in the same way for oocytes transfected with the TRPV2, and TRPV4 and TRPA1 receptors, wherein the receptor agonists cannabidiol (10 μmol) and 4α-PDD (4α-phorbol 12,13-didecanoate, 50 μmol) and innamaldehyde (50 μmol) were used instead of capsaicin.

[4] = tested on: HeLa, HUVEC and L929 fibroblast; test: cells; assay type: cell-based
Protocol: Physiologically occurring phospholipids can be taken up by virtually all cell lines in large quantities. It is known that phospholipids that contain non-physiologically occurring fatty acid residues can cause cell lyses or death. Three cell lines (HeLa, HUVEC and L929 fibroblast) were cultured in a suitable culture medium of 5% FCS at 37° C. and 5% CO2 concentrations to a subconfluent concentration of 1.5×10^5 cells.
SOPC, DOPC, POPC, ONOPC, PNLPC, and the free fatty acids of OA, LA, NOOA, and NOLA were dissolved in 0.5% DMSO. […] Cell cultures were incubated for 24 h and 48 h. Thereafter, the culture medium was removed and the cells washed twice. Following this, cells suspensions were given in four vials to perform the following analysis:
For the determination of viability, phenol red was added to the suspended cells. After 4 h, the medium was renewed and 10 μl of the MTT solution was added. The cells were cultured for 4 hours, and then a 10% SDS solution was pipetted. After 24 h, absorption of formazan crystals was measured at 500 nm using a power wave X (bio-tek instruments, Inc., USA). For the quantitative comparison of toxicity, the EC50 was determined.

[5] = top coating with PEG, after 2 month

With “1-stearoyl-2-(10-nitrolinoleoyl)-sn-3-glycerophosphocholine and 1-stearoyl-2-(9-nitrolinoleoyl)-sn-3-glycerophosphocholine [Example P2]” the “proportion of living cells relative to non-frozen control” value (sciatic nerve) was 82%, the “rate of intact follicles relative to the control group” value (ovarian tissue strips) was 85% and the “biocompatibility of coated implants compared to natural PLs” value [1] was “improved biocompatibility of implants several-fold”. The “mechanical removal of coating substance and workload to pull the catheter through PTFE tubing” value (from here on “mechanical removal”) [2] was “Very similar results”.

In the case of `CCCCCCCC/C=C(\CCCCCCCC(=O)O[C@H](COC(=O)CCCCCCCCCCCCCCC)COP(=O)([O-])OCC[N+](C)(C)C)[N+](=O)[O-]` [Example C, (E)-1-Palmitoyl-2-(9-nitrooleoyl)-sn-3-glycerophosphocholine], the “results of the hypoxia experiments compared with reference nitrated phospholipids” value (cortical neurons) is reported as “did not show relevant differences”, the “proportion of trans-fatty acids” value [3] is reported as 25% and the degree of transisomerization ([3]; coatings after 2 months) is reported as 30%. It also gave a degree of transisomerization [3, 5] of 32%.

With `CCCCCCCC/C=C(\CCCCCCCC(=O)O[C@H](COC(=O)CCCCCCCCCCCCCCC)COP(=O)([O-])OCC[N+](C)(C)C)[N+](=O)[O-]` [Example P8, 1-palmitoyl-2-(E-9-nitrooleoyl)-sn-3-glycerophosphocholine] the “rate of intact follicles relative to the control group” value (ovarian tissue strips) was 96% and the “inducible membrane channel activity of TRP channels” value (TRPV1, 2 and 4, TRPA1) was “significant decrease of inducible membrane channel activity”.

With `CCCCCCCC/C=C(\CCCCCCCC(=O)OC[C@H](COP(=O)(O)O)OC(=O)CCCCCCC/C(=C\CCCCCCCC)[N+](=O)[O-])[N+](=O)[O-]` [Example G, 1,2-di-(9-nitrooleoyl)-sn-3-glycerophosphate] the “biocompatibility of coated implants compared to natural PLs” value [1] was “improved biocompatibility of implants several-fold” and the “mechanical removal” value [2] was “Very similar results”.

In the case of `CCCCC/C=C\C/C=C(\CCCCCCCC(=O)O[C@H](COC(=O)CCCCCCCCCCCCCCCCC)COP(=O)(O)OCCN)[N+](=O)[O-]` [Example R, 1-Stearoyl-2-(E-9-nitrolinoleoyl)-sn-3-glycerophosphatidylethanolamine], the “proportion of living cells relative to non-frozen control” value (sciatic nerve) is reported as 75%, the “proportion of living cells relative to non-frozen control” value (sciatic nerve; listed as SNLPE) is reported as 80% and the “proportion of trans-fatty acids” value [3] is reported as 28%. For the same compound, the degree of transisomerization ([3]; coatings after 2 months) was 32%, the degree of transisomerization [3, 5] was 33% and the “biocompatibility of coated implants compared to natural PLs” value [1] was “improved biocompatibility of implants several-fold”.

In the case of `CC/C=C(\C/C=C\C/C=C\CCCCCCCC(=O)O[C@H](COC(=O)CCCCCCC/C=C\C/C=C\CCCCC)COP(=O)([O-])OCC[N+](C)(C)C)[N+](=O)[O-]` [Example P12, 1-linoleoyl-2-(E-15-nitro-α-linolenoyl)-sn-3-glycerophosphocholine], the “rate of intact follicles relative to the control group” value (ovarian tissue strips) is reported as 91% and the “biocompatibility of coated implants compared to natural PLs” value [1] is reported as “improved biocompatibility of implants several-fold”.

With “1-(5,8,11-eicosatrienoyl)-2-(9-nitro-α-linolenoyl)-sn-3-glycerophosphocholine and 1-(5,8,11-eicosatrienoyl)-2-(10-nitro-α-linolenoyl)-sn-3-glycerophosphocholine [Example P5]” the “rate of intact follicles relative to the control group” value (ovarian tissue strips) was 90% and the “mechanical removal” value [2] was “Very similar results”.

For `CCCCC/C=C\C/C=C\CCCCCCCC(=O)O[C@H](COC(=O)CCCCCCCCCCCCCCCCC)COP(=O)(O)OCCN` [SLPE, 1-Stearoyl-2-linoleoyl-sn-3-glycero-phosphatidylethanolamine, reference compound], the “proportion of living cells relative to non-frozen control” value (sciatic nerve) was 15%, the “proportion of trans-fatty acids” value [3] was 86% and the degree of transisomerization ([3]; coatings after 2 months) was 98%. It also gave a degree of transisomerization [3, 5] of 92%.

With `CCCCCCCCC(O)C(CCCCCCCC(=O)OC[C@H](COP(=O)([O-])OCC[N+](C)(C)C)OC(=O)CCCCCCCC(C(O)CCCCCCCC)[N+](=O)[O-])[N+](=O)[O-]` (some centres unmarked) [Example O1, 1,2-di-(9-nitro-10-hydroxy-stearoyl)-sn-3-glycerophosphocholine] the “results of the hypoxia experiments compared with reference nitrated phospholipids” value (cortical neurons) was “slightly worse results” and the “mechanical removal” value [2] was “Very similar results”.

In the case of “1,2-di-(9-nitrolinoleoyl)-sn-3-glycerophosphocholine, 1,2-di-(10-nitrolinoleoyl)-sn-3-glycerophosphocholine, 1-(9-nitrolinoleoyl)-2-(10-nitrolinoleoyl)-sn-3-glycerophosphocholine and 1-(10-nitrolinoleoyl)-2-(9-nitrolinoleoyl)-sn-3-glycerophosphocholine [Example N8]”, the “biocompatibility of coated implants compared to natural PLs” value [1] is reported as “improved biocompatibility of implants several-fold”.

With “1,2-di-(9-nitrolinoleoyl)-sn-3-glycerophosphocholine, 1,2-di-(10-nitrolinoleoyl)-sn-3-glycerophosphocholine, 1-(9-nitrolinoleoyl)-2-(10-nitrolinoleoyl)-sn-3-glycerophosphocholine and 1-(10-nitrolinoleoyl)-2-(9-nitrolinoleoyl)-sn-3-glycerophosphocholine [Example N1]” the “rate of intact follicles relative to the control group” value (ovarian tissue strips) was 93% and the “mechanical removal” value [2] was “Very similar results”.

In the case of `CCCCCCCC/C=C\CCCCCCCC(=O)OC[C@H](COP(=O)([O-])OCC[N+](C)(C)C)OC(=O)CCCCCCC/C(=C\CCCCCCCC)[N+](=O)[O-]` [Example P15, 1-oleoyl-2-(E-9-nitrooleoyl)-sn-3-glycerophosphocholine], the “total viability (MTT assay)” value [4] is reported as 83% and the EC50 ([4]; after 48 hours, range over cell lines, read-out: EC50 (MTT assay)) is reported as 800 to 5000 µM.

In the case of `CCCCCCCCC=C(CCCCCCCC(=O)OC[C@H](COP(=O)(O)OC[C@H](N)C(=O)O)OC(=O)CCCCCCCC(=CCCCCCCCC)[N+](=O)[O-])[N+](=O)[O-]` [Example E, 1,2-di-(9-nitrooleoyl)-sn-3-glycerophosphatidylserine], the “mechanical removal” value [2] is reported as “Very similar results” and the “inducible membrane channel activity of TRP channels” value (TRPV1, 2 and 4, TRPA1) is reported as “significant decrease of inducible membrane channel activity”.
